Assay [1] concerns carrageenan foot edema (rat paw). Briefly: Rat Carrageenan Foot Pad Edema Test. The class given is in vivo, Male Sprague-Dawley rats. To be noted: @ 30 mg/kg body weight; oral; 3 hours after carrageenan. The procedure:
Rat Carrageenan Foot Pad Edema Test
Male Sprague-Dawley rats were selected in each group so that the average body weight was as close as possible. Rats were fasted with free access to water for over sixteen hours prior to the test. […] One hour later a subplantar injection of 0.1 mL of 1% solution of carrageenan/sterile 0.9% saline was administered and the volume of the injected foot was measured with a displacement plethysmometer connected to a pressure transducer with a digital indicator. Three hours after the injection of the carrageenan, the volume of the foot was again measured.
On the technique in general: In the carrageenan paw model, swelling and tenderness develop within hours.

Assay [2] concerns hyperalgesic foot withdrawal (rat carrageenan). Kind of assay: Rat Carrageenan-induced Analgesia Test. The class given is in vivo, Male Sprague-Dawley rats. To be noted: @ 30 mg/kg body weight; oral; 3 hours after carrageenan. The procedure:
Rat Carrageenan-induced Analgesia Test
Male Sprague-Dawley rats were treated as previously described for the Carrageenan Foot Pad Edema test. Three hours after the injection of the carrageenan, the rats were placed in a special plexiglass container with a transparent floor having a high intensity lamp as a radiant heat source, positionable under the floor. After an initial twenty minute period, thermal stimulation was begun on either the injected foot or on the contralateral uninjected foot. A photoelectric cell turned off the lamp and timer when light was interrupted by paw withdrawal. The time until the rat withdraws its foot was then measured. The withdrawal latency in seconds was determined for the control and drug-treated groups, and percent inhibition of the hyperalgesic foot withdrawal determined.

The target in a further assay is T1, Human COX-1 (Homo sapiens, UniProt P23219).
T1 construct: A 2.0 kb fragment containing the coding region of either human or murine COX-1 or human or murine COX-2; made in house; host or cells: SF9 insect cells (recombinant baculovirus, pVL1393); CHAPS-solubilized membranes
T1 sequence (P23219 24-599): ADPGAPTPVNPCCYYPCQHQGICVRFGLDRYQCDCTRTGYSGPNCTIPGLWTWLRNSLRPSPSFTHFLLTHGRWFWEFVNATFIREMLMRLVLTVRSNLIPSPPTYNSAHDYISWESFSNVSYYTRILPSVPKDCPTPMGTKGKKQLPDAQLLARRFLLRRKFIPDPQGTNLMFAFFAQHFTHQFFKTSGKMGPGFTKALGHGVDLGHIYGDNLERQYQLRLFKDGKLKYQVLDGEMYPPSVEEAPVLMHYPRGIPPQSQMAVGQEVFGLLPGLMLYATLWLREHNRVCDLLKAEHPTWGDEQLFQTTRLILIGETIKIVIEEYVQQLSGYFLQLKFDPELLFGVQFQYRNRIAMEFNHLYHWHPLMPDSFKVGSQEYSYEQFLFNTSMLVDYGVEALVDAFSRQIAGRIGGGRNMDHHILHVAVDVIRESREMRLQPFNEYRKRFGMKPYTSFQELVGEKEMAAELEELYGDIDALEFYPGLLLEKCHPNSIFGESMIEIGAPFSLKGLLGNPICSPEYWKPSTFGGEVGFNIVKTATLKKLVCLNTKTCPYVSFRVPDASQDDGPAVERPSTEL
Briefly: Evaluation of COX-1 activity in vitro (recombinant enzyme, PGE2 ELISA). It counts as biochemical. To be noted: 10 μM arachidonic acid; 10-20 minutes pre-incubation; pH 8.0. From the text:
Evaluation of COX-1 and COX-2 activity in vitro
(§1) a. Preparation of recombinant COX baculoviruses
(§2) A 2.0 kb fragment containing the coding region of either human or murine COX-1 or human or murine COX-2 was cloned into a BamH1 site of the baculovirus transfer vector pVL1393 (Invitrogen) to generate the baculovirus transfer vectors for COX-1 and COx-2 in a manner similar to the method of D. R. O'Reilly et al (Baculovirus Expression Vectors: A Laboratory Manual (1992)). Recombinant baculoviruses were isolated by transfecting 4 μg of baculovirus transfer vector DNA into SF9 insect cells (2>10e8) along with 200 ng of linearized baculovirus plasmid DNA by the calcium phosphate method. See M. D. Summers and G. E. Smith, A Manual of Methods for Baculovirus Vectors and Insect Cell Culture Procedures, Texas Agric. Exp. Station Bull. 1555 (1987). Recombinant viruses were purified by three rounds of plaque purification and high titer (10E7-10E8 pfu/ml) stocks of virus were prepared. For large scale production, SF9 insect cells were infected in 10 liter fermentors (0.5×10^6 /ml) with the recombinant baculovirus stock such that the multiplicity of infection was 0.1. After 72 hours the cells were centrifuged and the cell pellet homogenized in Tris/Sucrose (50 mM: 25%, pH 8.0) containing 1% 3-[(3-cholamidopropyl)dimethylammoniol]-1-propanesulfonate (CHAPS). The homogenate was centrifuged at 10,000×G for 30 minutes, and the resultant supernatant was stored at -80° C. before being assayed for Cox activity.
b. Assay for COX-1 and COX-2 activity:
(§3) COX activity was assayed as PGE2 formed/μg protein/time using an ELISA to detect the prostaglandin released. CHAPS-solubilized insect cell membranes containing the appropriate COX enzyme were incubated in a potassium phosphate buffer (50 mM, pH 8.0) containing epinephrine, phenol, and heme with the addition of arachidonic acid (10 μM). Compounds were pre-incubated with the enzyme for 10-20 minutes prior to the addition of arachidonic acid. Any reaction between the arachidonic acid and the enzyme was stopped after ten minutes at 37° C./room temperature by transferring 40 μl of reaction mix into 160 μl ELISA buffer and 25 μM indomethacin. The PGE2 formed was measured by standard ELISA technology (Cayman Chemical).
On the technique in general: In an ELISA, binding on a coated surface is turned into a signal by an enzyme label.

For another assay, the target named is T2, Human COX-2 (Homo sapiens, UniProt P35354).
T2 construct: A 2.0 kb fragment containing the coding region of either human or murine COX-1 or human or murine COX-2; made in house; host or cells: SF9 insect cells (recombinant baculovirus, pVL1393); CHAPS-solubilized membranes
T2 sequence (P35354 18-604): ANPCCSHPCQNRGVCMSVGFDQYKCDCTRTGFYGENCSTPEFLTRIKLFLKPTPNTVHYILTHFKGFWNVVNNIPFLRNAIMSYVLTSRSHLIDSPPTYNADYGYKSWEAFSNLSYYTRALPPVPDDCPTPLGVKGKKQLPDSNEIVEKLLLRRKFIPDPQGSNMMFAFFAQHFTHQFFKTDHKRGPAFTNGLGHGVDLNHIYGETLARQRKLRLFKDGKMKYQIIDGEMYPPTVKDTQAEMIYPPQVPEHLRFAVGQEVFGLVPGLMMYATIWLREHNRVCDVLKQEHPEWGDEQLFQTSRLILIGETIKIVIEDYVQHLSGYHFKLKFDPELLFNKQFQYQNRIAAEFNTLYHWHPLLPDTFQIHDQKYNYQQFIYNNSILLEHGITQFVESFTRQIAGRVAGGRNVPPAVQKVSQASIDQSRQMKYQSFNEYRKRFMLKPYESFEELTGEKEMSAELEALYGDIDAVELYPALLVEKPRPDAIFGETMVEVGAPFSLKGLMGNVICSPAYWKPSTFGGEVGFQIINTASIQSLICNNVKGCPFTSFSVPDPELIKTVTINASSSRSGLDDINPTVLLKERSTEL
Kind of assay: Evaluation of COX-2 activity in vitro (recombinant enzyme, PGE2 ELISA). It counts as biochemical. To be noted: 10 μM arachidonic acid; 10-20 minutes pre-incubation; pH 8.0. The procedure:
The COX-2 inhibition activity of the compounds of this invention illustrated in the Examples was determined by the following methods.
as §1, §2, §3

Molecules are shown by their SMILES.

For the compound `COc1ccc2c(c1F)CSc1c(C(F)(F)F)nn(-c3ccc(S(N)(=O)=O)cc3)c1-2` [Example 1, 4-[6-fluoro-1,5-dihydro-7-methoxy-3-(trifluoromethyl)-[2]benzothiopyrano[4,3-c]pyrazol-1-yl]benzenesulfonamide], in assay [1], the “RAT PAW EDEMA % Inhibition” value turned out to be 43%. For the same compound, in assay [2], the “ANALGESIA % Inhibition” value was determined as 35%.
In general, IC50 refers to the concentration that inhibits the measured activity by half. For the compound `NS(=O)(=O)c1ccc(-n2nc(C(F)(F)F)c3c2-c2ccccc2OC3)cc1` [Example 3, 4-[1,4-dihydro-3-(trifluoromethyl)-[1]benzopyrano[4,3-c]pyrazol-1-yl]benzenesulfonamide], the IC50 on Human COX-1 was 7100 nM.
The same measure, in the same setting: in the case of `NS(=O)(=O)c1ccc(-n2nc(C(F)(F)F)c3c2-c2ccccc2SC3)cc1` [Example 7, 4-[1,4-dihydro-3-(trifluoromethyl)-[1]benzothiopyrano[4,3-c]pyrazol-1-yl]benzenesulfonamide] it was 9700 nM; in that of `NS(=O)(=O)c1ccc(-n2nc(C(F)(F)F)c3c2-c2ccccc2CS3)cc1` [Example 16, 4-[1,5-dihydro-3-(trifluoromethyl)-[2]benzothiopyrano[4 3-c]pyrazol-1-yl]benzenesulfonamide], 400 nM.
On to `NS(=O)(=O)c1ccc(-n2nc(C(F)(F)F)c3c2-c2cc(Cl)sc2CS3)cc1` [Example 21, 4-[7-chloro-1,5-dihydro-3-trifluoromethylthieno[3',2':4,5]thiopyrano[3,2-c]pyrazol-1-yl]benzenesulfonamide], for which the “ANALGESIA % Inhibition” value in assay [2] was determined as 14%.
For the compound `Cc1ccc2c(c1)CSc1c(C(F)F)nn(-c3ccc(S(N)(=O)=O)cc3)c1-2` [Example 24, 4-[3-(difluoromethyl)-1,5-Dihydro-7-methyl-[2]benzothiopyrano[4,3-c]pyrazol-1-yl]benzenesulfonamide], the 50% inhibitory concentration (IC50) at Human COX-2 was under 100 nM; on Human COX-1, 1200 nM.
Take `NS(=O)(=O)c1ccc(-n2nc(C(F)F)c3c2-c2ccc(Cl)cc2CS3)cc1` [Example 25, 4-[7-chloro-3-(difluoromethyl)-1,5-dihydro-[2]benzothiopyrano[4,3-c]pyrazol-1-yl]benzenesulfonamide]: the IC50 on Human COX-2 was under 100 nM; at Human COX-1, 1500 nM.
Taken in the same sequence, the figures for `COc1ccc2c(c1)COc1c(C(F)(F)F)nn(-c3ccc(S(N)(=O)=O)cc3)c1-2` [Example 26, 4-[1,5-dihydro-7-methoxy-3-(trifluoromethyl)-[2]benzopyrano[4,3-c]pyrazol-1-yl]benzenesulfonamide] were under 100 nM and 200 nM.
As for `COc1cc2c(c(OC)c1OC)-c1c(c(C(F)(F)F)nn1-c1ccc(S(N)(=O)=O)cc1)OC2` [Example 27, 4-[1,5-dihydro-7.8,9-trimethoxy-3-(trifluoromethyl)-[2]benzopyrano[4,3-c]pyrazol-1-yl]benzenesulfonamide], the IC50 was 59900 nM on Human COX-2 and over 100000 nM on Human COX-1.
`Cc1ccc2c(c1)COc1c(C(F)(F)F)nn(-c3ccc(S(N)(=O)=O)cc3)c1-2` [Example 28, 4-[1,5-dihydro-7-methyl-3-(trifluoromethyl)-[2]benzopyrano[4,3-c]pyrazol-1-yl]benzenesulfonamide]: the IC50 on Human COX-2 was under 100 nM; on Human COX-1 it was over 100000 nM.
Regarding `COc1c(F)cc2c(c1F)CSc1c(C(F)(F)F)nn(-c3ccc(S(N)(=O)=O)cc3)c1-2` [Example 29, 4-[6,8-difluoro-1,5-dihydro-7-methoxy-3-(trifluoromethyl)[2]benzothiopyrano[4,3-c]pyrazol-1-yl]benzenesulfonamide], the IC50 at Human COX-2 was 300 nM; on Human COX-1, over 100000 nM.
Taken in the same sequence, the figures for `Cc1ccc2c(c1)COc1c(C(F)F)nn(-c3ccc(S(N)(=O)=O)cc3)c1-2` [Example 30, 4-[3-(difluoromethyl)-1,5-dihydro-7-methyl[2]benzopyrano[4,3-c]pyrazol-1-yl]benzenesulfonamide] were under 100 nM and 10700 nM.
Consider `NS(=O)(=O)c1ccc(-n2nc(C(F)F)c3c2-c2ccc(F)cc2CS3)cc1` [Example 31, 4-[3-(difluoromethyl)-1,5-dihydro-7-fluoro-[2]benzothiopyrano[4,3-c]pyrazol-1-yl]benzenesulfonamide], for which the results for the concentration for half-maximal inhibition (IC50) on Human COX-2 and at Human COX-1 were under 100 nM and 200 nM, respectively.
Taken in the same sequence, the figures for `CS(=O)(=O)c1ccc(-n2nc(C(F)(F)F)c3c2-c2ccc(F)cc2CS3)cc1` [Example 32, 1,5-dihydro-7-fluoro-1-[(4-methylsulfonyl)phenyl]-3-(trifluoromethyl)-[2]benzothiopyrano[4,3,c]pyrazole] were 200 nM and 8900 nM.
On to `NS(=O)(=O)c1ccc(-n2nc(C(F)(F)F)c3c2-c2ccc4c(c2CS3)OCO4)cc1` [Example 33], for which the half-inhibitory concentration (IC50) at Human COX-2 and on Human COX-1 was under 100 nM each time.
On to `CN(C)C=NS(=O)(=O)c1ccc(-n2nc(C#N)c3c2-c2ccc(F)cc2CS3)cc1` [Example 34, 4-(3-cyano-1,5-dihydro-7-fluoro-[2]benzothiopyrano[4,3-c]pyrazol-1-yl) -N-[(dimethylamino)methylene]-benzenesulfonamide], for which the IC50 on Human COX-2 is 4200 nM; at Human COX-1, over 100000 nM.
As for `N#Cc1nn(-c2ccc(S(N)(=O)=O)cc2)c2c1SCc1cc(F)ccc1-2` [Example 35], the IC50 at Human COX-2 was 100 nM; at Human COX-1, 800 nM.
In the case of `NS(=O)(=O)c1ccc(-n2nc(CO)c3c2-c2ccc(F)cc2CS3)cc1` [Example 36], the IC50 on Human COX-2 was determined as 1700 nM; on Human COX-1, 6700 nM.

The values above are taken from patent publication US5886016A, “Benzopyranopyrazolyl derivatives for the treatment of inflammation” (G.D. Searle & Co., priority 1997, dated 1999).
